PubChem BioAssay (NCI)
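These data come from cells grown in 96-well plates and exposed to compound for 48 hours at five concentrations. At the GI50, growth is halved. At the TGI there is no net growth.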 Where a SMILES comes first, the peptide text is derived from it. Bridges are numbered along the chain shown (N, C = ends). Roman numbers before positions name the chains, in order. [ ]: non-standard residue; d: D form. The star is where a group is joined. Heptadecanoyl = CCCCCCCCCCCCCCCCC(=O)*; Phg = N[CH](C(=O)O)c1ccccc1

How the values were obtained:
Assay in all cases: inhibition of tumour cell growth, NCI panel, 48 h
DLD-1 colon = test system: DLD-1 colon
DMS 273 small cell lung = test system: DMS 273 small cell lung
HOP-18 NSCLC = test system: HOP-18 NSCLC
HOP-62 NSCLC = test system: HOP-62 NSCLC
LOX IMVI melanoma = test system: LOX IMVI melanoma
MCF7 breast = test system: MCF7 breast
SNB-78 CNS = test system: SNB-78 CNS
U251 CNS = test system: U251 CNS
XF 498 CNS = test system: XF 498 CNS
MDA-N = test system: MDA-N
PC-3 prostate = test system: PC-3 prostate
SR leukemia = test system: SR leukemia
ACHN renal = test system: ACHN renal
786-0 renal = test system: 786-0 renal

Row | SMILES | TGI (DLD-1 colon) | TGI (DMS 273 small cell lung) | TGI (HOP-18 NSCLC) | TGI (HOP-62 NSCLC) | TGI (LOX IMVI melanoma) | TGI (MCF7 breast) | TGI (SNB-78 CNS) | TGI (U251 CNS) | TGI (XF 498 CNS) | GI50 (HOP-62 NSCLC) | GI50 (MCF7 breast) | TGI (MDA-N) | TGI (PC-3 prostate) | TGI (SR leukemia) | GI50 (ACHN renal) | TGI (ACHN renal) | GI50 (LOX IMVI melanoma) | GI50 (PC-3 prostate) | GI50 (U251 CNS) | TGI (786-0 renal)
1 | CCOC(=O)c1cc(Cl)ccc1OC(N)=O | > 100 µM | > 100 µM | > 100 µM | > 100 µM | > 100 µM | > 100 µM | > 100 µM | > 100 µM | > 100 µM |  |  |  |  |  |  |  |  |  |  | 
2 | CCCCCCCCCCCCCCCCC(=O)N1CCCC1C(=O)NCC(=O)NC(C(=O)N1CCCC1C(=O)NC(CO)C(=O)NC(Cc1ccc(O)cc1)C(=O)NC(CCCCNC(=O)C1CCCN1C(=O)C(CCCCN)NC(=O)C(CCCCN)NC(=O)C(CCCCN)NC(=O)C(CCCNC(=N)N)NC(=O)C(CCCCN)NC(=O)C(N)C(C)C)C(=O)NC(CC(C)C)C(=O)NC(CCCNC(=N)N)C(=O)N1CCCC1C(=O)NCC(N)=O)c1ccccc1 (stereo unspecified) (I: Heptadecanoyl-PG[Phg]PSYKLRPG-NH2 / II: H-VKRKKKP; amide I:7-II:C; configuration not given here) |  |  |  | > 100 µM |  | > 100 µM |  |  |  | 32.3 µM | 23.6 µM |  |  |  |  |  |  |  |  | 
3 | Nc1nc(Cl)nc2c1ncn2C1CCC(CO)O1 (stereo unspecified) |  |  |  | > 100 µM | > 100 µM | > 100 µM |  | > 100 µM |  |  |  | > 100 µM | > 100 µM | > 100 µM |  |  |  |  |  | 
4 | N#CC(C#N)=Cc1ccc(-c2ccc(-c3nc4ccccc4s3)cc2)s1 |  |  |  | 34.2 µM | 23.5 µM | > 100 µM |  | 31.9 µM |  | 13 µM | 26.2 µM |  | 23.1 µM |  | 13.4 µM | 27.3 µM | 8.5 µM | 6.23 µM | 14.9 µM | 
5 | C(=N/Nc1ccccn1)/c1cccnc1 |  |  |  | > 100 µM | > 100 µM | > 100 µM |  | > 100 µM |  |  |  | > 100 µM | > 100 µM |  |  | > 100 µM |  |  |  | > 100 µM
6 | CN(C)C(=S)SCc1ccccc1 |  |  |  | > 100 µM | > 100 µM | > 100 µM |  | > 100 µM |  |  |  | > 100 µM |  |  |  |  |  |  |  | 
7 | C/C(=C\c1ccc2c(c1)OCO2)[N+](=O)[O-] |  |  |  | > 100 µM |  |  |  |  |  |  |  |  | 5.9 µM | 2.39 µM |  |  |  |  |  | 
8 | Cc1cccc(C(O)c2ccccn2)c1O (stereo unspecified) |  |  |  | > 100 µM | > 100 µM | > 100 µM |  | > 100 µM |  |  |  | > 100 µM | > 100 µM | > 100 µM |  | > 100 µM |  |  |  | 
